Measured values taken from US11981658B2, “Substituted aminopyridine compounds as EGFR inhibitors” (YUHAN CORPORATION, priority 2021, dated 2024).
Like-named read-outs stand apart in the source and are kept apart here.

Columns and labels:
EGFR wildtype (WT) = EGFR wildtype (WT) (Homo sapiens, UniProt P00533); assay: Biochemical EGFR kinase inhibition assay (Lance Ultra TR-FRET), wildtype
Procedure: (§1) Biochemical EGFR kinase assays were conducted using Lance Ultra time-resolved fluorescence resonance energy transfer (TR-FRET) technology from Perkin-Elmer. Compounds of the invention were initially diluted to 20 mM in 100% DMSO for storage and made into kinase buffer solution to create a compound concentration ranging from 0.003 μM and 10 μM.
(§2) Each kinase reactions were incubated at room temperature for 1 hour and then stopped by the addition of 4 μL of stop solution (10 mM EDTA). The specific Europium-labeled-anti-phosphopeptide antibody (PerkinElmer, AD0069) diluted in LANCE detection buffer was then added to a final concentration of 2 nM. After 60 minutes incubation at room temperature the LANCE signal was measured on an EnVision Multilabel Reader (Perkin-Elmer). Excitation wavelength was set at 320 nm and emission monitored at 615 nm (donor) and 665 nm (acceptor). The IC50 values were determined using GraphPad prism software (GraphPad Software, Inc., San Diego, CA, USA).

EGFR Del19/C797S = EGFR Del19/C797S (Homo sapiens, UniProt P00533, C797S/DEL746-750); assay: Biochemical EGFR kinase inhibition assay (Lance Ultra TR-FRET), double mutant del19/C797S
Procedure: as §1, §2

EGFR L858R/C797S = EGFR L858R/C797S (Homo sapiens, UniProt P00533, C797S/L858R); assay: Biochemical EGFR kinase inhibition assay (Lance Ultra TR-FRET), double mutant L858R/C797S
Procedure: as §1, §2

EGFR L858R/T790M/C797S = EGFR L858R/T790M/C797S (Homo sapiens, UniProt P00533, C797S/L858R/T790M); assay: Biochemical EGFR kinase inhibition assay (Lance Ultra TR-FRET), triple mutant L858R/T790M/C797S
Procedure: as §1, §2

EGFR Del19/T790M/C797S = EGFR Del19/T790M/C797S (Homo sapiens, UniProt P00533, C797S/DEL746-750/T790M); assay: Biochemical EGFR kinase inhibition assay (Lance Ultra TR-FRET), triple mutant del19/T790M/C797S
Procedure: as §1, §2

[1] = IC50 Del19/C797S (nM), 100 μM ATP
[2] = IC50 L858R/C797S (nM), 100 μM ATP
[3] = IC50 L858R/T790M/C797S (nM), 100 μM ATP
[4] = IC50 Del19/T790M/C797S (nM), 100 μM ATP
[5] = Km ATP, read-out: IC50 WT (nM) Km ATP
[6] = Km ATP, read-out: IC50 Del19/C797S (nM) Km ATP
[7] = Km ATP, read-out: IC50 L858R/C797S (nM) Km ATP
[8] = Km ATP, read-out: IC50 L858R/T790M/C797S (nM) Km ATP
[9] = Km ATP, read-out: IC50 Del19/T790M/C797S (nM) Km ATP

Chain of EGFR Del19/C797S (P00533 with tags, fused parts or gaps DEL746-750/C797S): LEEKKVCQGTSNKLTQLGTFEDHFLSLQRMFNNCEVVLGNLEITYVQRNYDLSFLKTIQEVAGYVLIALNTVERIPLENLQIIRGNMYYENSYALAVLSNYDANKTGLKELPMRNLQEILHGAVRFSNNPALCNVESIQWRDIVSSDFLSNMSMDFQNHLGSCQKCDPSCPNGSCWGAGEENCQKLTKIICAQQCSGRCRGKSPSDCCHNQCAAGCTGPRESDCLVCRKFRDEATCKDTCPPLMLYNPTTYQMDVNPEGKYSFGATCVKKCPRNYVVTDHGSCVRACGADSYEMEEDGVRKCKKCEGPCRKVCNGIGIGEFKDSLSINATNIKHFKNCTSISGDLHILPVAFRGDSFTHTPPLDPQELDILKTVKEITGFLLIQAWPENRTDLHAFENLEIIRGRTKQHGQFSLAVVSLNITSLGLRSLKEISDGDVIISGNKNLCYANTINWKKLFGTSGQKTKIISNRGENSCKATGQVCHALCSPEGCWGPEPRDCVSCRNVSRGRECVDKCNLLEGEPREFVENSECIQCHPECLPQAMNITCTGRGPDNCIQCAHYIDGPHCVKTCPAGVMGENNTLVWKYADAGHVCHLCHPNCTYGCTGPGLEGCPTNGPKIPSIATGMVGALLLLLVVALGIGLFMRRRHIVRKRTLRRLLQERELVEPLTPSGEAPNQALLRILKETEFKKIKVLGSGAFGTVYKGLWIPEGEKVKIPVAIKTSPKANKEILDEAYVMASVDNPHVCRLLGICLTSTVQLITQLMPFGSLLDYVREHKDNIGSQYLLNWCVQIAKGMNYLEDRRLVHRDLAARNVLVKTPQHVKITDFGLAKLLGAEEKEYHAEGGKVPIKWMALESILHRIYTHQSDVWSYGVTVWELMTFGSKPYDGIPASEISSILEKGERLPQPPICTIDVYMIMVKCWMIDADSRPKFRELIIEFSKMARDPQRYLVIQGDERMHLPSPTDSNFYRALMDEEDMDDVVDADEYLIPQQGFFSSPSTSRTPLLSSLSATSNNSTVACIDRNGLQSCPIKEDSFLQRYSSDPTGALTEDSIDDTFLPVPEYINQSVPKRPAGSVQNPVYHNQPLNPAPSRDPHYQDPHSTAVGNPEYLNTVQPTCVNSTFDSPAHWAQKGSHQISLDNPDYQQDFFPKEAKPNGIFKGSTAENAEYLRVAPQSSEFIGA
Chain of EGFR wildtype (WT) (P00533 25-1210): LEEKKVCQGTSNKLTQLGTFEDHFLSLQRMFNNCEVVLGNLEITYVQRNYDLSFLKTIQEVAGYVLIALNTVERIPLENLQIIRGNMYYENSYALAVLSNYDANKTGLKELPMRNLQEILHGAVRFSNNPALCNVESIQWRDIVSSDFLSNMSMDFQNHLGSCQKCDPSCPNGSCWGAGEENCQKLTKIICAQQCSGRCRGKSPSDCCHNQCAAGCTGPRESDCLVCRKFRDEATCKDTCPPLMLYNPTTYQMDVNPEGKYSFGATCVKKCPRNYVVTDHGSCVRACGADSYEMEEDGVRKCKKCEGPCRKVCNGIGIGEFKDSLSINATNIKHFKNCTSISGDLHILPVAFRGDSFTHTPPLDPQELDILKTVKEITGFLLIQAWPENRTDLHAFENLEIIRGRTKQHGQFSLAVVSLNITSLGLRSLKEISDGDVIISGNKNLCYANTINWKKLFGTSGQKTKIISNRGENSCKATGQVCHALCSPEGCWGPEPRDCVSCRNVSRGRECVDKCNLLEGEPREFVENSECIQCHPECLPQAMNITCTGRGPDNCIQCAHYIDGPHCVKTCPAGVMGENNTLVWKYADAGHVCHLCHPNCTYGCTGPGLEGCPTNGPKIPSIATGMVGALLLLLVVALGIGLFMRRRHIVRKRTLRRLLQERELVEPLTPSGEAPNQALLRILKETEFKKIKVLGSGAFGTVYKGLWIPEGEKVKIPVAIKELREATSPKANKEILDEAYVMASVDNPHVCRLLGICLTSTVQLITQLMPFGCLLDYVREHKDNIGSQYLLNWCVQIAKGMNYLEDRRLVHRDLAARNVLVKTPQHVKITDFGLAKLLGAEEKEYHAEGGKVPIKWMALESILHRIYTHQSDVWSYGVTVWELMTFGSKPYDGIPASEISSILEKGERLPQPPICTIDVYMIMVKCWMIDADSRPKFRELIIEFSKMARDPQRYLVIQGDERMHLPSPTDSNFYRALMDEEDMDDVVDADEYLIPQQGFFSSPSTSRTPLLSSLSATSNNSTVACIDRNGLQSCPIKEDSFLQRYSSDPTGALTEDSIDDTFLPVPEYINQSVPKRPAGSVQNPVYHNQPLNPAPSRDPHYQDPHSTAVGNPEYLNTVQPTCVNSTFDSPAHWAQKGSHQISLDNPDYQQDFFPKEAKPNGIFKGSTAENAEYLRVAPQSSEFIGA
Chain of EGFR Del19/T790M/C797S (P00533 with tags, fused parts or gaps DEL746-750/T790M/C797S): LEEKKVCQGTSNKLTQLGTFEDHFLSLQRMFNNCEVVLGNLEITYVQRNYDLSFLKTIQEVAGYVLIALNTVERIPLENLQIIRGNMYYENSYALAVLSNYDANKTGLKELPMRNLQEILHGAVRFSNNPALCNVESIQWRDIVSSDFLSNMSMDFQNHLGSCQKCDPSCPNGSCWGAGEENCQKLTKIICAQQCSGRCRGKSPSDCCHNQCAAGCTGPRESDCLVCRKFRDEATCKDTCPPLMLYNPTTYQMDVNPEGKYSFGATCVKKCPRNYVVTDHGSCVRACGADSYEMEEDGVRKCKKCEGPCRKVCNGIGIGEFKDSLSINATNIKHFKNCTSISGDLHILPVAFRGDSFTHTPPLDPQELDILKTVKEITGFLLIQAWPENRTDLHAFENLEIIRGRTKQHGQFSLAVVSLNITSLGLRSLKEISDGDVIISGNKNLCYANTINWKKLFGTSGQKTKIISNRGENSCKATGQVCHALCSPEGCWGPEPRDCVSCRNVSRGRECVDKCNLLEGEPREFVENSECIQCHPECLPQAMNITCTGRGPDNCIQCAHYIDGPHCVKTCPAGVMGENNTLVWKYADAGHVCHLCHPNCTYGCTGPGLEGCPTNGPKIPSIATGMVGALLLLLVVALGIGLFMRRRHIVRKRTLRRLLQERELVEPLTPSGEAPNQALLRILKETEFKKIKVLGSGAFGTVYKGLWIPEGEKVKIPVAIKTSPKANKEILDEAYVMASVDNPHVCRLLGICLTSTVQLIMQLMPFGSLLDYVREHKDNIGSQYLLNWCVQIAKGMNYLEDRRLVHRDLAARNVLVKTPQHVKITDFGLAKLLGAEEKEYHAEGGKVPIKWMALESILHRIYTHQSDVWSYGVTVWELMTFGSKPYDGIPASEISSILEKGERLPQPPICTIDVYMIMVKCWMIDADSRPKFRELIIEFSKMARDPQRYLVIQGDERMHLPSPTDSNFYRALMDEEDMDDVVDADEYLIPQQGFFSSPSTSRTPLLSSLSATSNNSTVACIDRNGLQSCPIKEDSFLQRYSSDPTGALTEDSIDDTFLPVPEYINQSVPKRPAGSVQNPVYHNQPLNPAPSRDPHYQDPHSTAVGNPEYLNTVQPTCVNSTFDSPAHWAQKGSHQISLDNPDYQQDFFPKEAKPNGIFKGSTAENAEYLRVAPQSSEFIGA
Chain of EGFR L858R/T790M/C797S (P00533 25-1210 T790M/C797S/L858R): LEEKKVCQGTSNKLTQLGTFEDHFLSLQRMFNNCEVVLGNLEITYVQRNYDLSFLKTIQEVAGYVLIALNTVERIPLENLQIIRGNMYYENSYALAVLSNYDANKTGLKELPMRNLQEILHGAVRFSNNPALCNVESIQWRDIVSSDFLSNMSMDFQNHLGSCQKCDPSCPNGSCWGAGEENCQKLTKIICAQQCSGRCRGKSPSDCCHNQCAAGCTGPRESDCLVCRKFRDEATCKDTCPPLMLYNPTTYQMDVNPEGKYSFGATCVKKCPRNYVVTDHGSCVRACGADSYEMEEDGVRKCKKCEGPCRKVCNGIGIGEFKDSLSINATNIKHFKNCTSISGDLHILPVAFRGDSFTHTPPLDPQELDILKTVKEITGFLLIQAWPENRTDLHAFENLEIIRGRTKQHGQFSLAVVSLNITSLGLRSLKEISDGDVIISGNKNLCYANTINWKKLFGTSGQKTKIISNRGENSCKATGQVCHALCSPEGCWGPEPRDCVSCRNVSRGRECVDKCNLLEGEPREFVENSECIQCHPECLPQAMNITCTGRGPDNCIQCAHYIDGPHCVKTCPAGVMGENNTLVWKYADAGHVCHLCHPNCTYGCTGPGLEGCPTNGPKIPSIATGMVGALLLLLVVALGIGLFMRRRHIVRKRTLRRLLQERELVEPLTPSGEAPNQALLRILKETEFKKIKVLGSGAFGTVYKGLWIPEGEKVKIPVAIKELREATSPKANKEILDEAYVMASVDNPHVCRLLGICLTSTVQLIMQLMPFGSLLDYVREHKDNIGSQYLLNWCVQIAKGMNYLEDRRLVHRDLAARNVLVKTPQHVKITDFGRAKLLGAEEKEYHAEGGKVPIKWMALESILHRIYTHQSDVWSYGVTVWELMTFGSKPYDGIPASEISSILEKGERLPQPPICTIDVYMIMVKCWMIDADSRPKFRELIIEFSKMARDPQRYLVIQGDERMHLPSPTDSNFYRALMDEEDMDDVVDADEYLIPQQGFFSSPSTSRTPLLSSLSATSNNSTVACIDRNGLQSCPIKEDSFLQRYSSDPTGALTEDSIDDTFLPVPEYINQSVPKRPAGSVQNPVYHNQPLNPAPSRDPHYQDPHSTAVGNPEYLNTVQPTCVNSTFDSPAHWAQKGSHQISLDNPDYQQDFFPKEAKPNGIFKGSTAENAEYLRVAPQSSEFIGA

IC50 (EGFR wildtype (WT); IC50 WT (nM), 100 μM ATP) [nM] | IC50 (EGFR Del19/C797S; [1]) [nM] | IC50 (EGFR L858R/C797S; [2]) [nM] | IC50 (EGFR L858R/T790M/C797S; [3]) [nM] | IC50 (EGFR Del19/T790M/C797S; [4]) [nM] | IC50 (EGFR wildtype (WT); [5]) [nM] | IC50 (EGFR Del19/C797S; [6]) [nM] | IC50 (EGFR L858R/C797S; [7]) [nM] | IC50 (EGFR L858R/T790M/C797S; [8]) [nM] | IC50 (EGFR Del19/T790M/C797S; [9]) [nM] | Compound
> 10000 | 3.8 | 27.5 | 1.1 | 1.9 | 52.8 | 2.8 | 2.2 | 0.4 | 0.7 | Cn1cc(C#Cc2cnc(Nc3ccnc(-c4cnn(S(=O)(=O)C5CC5)c4)n3)cc2N2CCCC(CO)C2)cn1 (stereo not shown) [Example 9, (1-(2-((2-(1-(Cyclopropylsulfonyl)-1H-pyrazol-4-yl)pyrimidin-4-yl)amino)-5-((1-methyl-1H-pyrazol-4-yl)ethynyl)pyridin-4-yl)piperidin-3-yl)methanol]
3090 | 3.3 | 9.2 | 1.1 | 1.4 |  |  |  |  |  | Cn1cc(C#Cc2cnc(Nc3ccnc(-c4cnn(S(=O)(=O)C5CC5)c4)n3)cc2N2CCC3(CC2)CC(C)(O)C3)cn1 [Example 13, 7-(2-((2-(1-(Cyclopropylsulfonyl)-1H-pyrazol-4-yl)pyrimidin-4-yl)amino)-5-((1-methyl-1H-pyrazol-4-yl)ethynyl)pyridin-4-yl)-2-methyl-7-azaspiro[3.5]nonan-2-ol]
> 10000 | 21.7 | 41 | 3 | 3.9 |  |  |  |  |  | Cn1cc(C#Cc2cnc(Nc3ccnc(-c4cnn(S(=O)(=O)C5CC5)c4)n3)cc2N2CCC(C(C)(C)CO)CC2)cn1 [Example 14, 2-(1-(2-((2-(1-(Cyclopropylsulfonyl)-1H-pyrazol-4-yl)pyrimidin-4-yl)amino)-5-((1-methyl-1H-pyrazol-4-yl)ethynyl)pyridin-4-yl)piperidin-4-yl)-2-methylpropan-1-ol]
661 | 6.4 | 25.5 | 1.6 | 2.6 |  |  |  |  |  | COC1CCN(c2cc(Nc3ccnc(-c4cnn(S(=O)(=O)C5CC5)c4)n3)ncc2C#Cc2cnn(C)c2)CC1 [Example 15, 2-(1-(Cyclopropylsulfonyl)-1H-pyrazol-4-yl)-N-(4-(4-methoxypiperidin-1-yl)-5-((1-methyl-1H-pyrazol-4-yl)ethynyl)pyridin-2-yl)pyrimidin-4-amine]
8000 | 2.7 | 28.1 | 2.3 | 1.8 |  |  |  |  |  | Cn1cc(C#Cc2cnc(Nc3ccnc(-c4cnn(S(=O)(=O)C5CC5)c4)n3)cc2N2CCC(CO)CC2)cn1 [Example 29, (1-(2-((2-(1-(Cyclopropylsulfonyl)-1H-pyrazol-4-yl)pyrimidin-4-yl)amino)-5-((1-methyl-1H-pyrazol-4-yl)ethynyl)pyridin-4-yl)piperidin-4-yl)methanol]

Second part, the compound before the results:

Compound | IC50 (EGFR wildtype (WT); IC50 WT (nM), 100 μM ATP) [nM] | IC50 (EGFR Del19/C797S; [1]) [nM] | IC50 (EGFR L858R/C797S; [2]) [nM] | IC50 (EGFR L858R/T790M/C797S; [3]) [nM] | IC50 (EGFR Del19/T790M/C797S; [4]) [nM] | IC50 (EGFR wildtype (WT); [5]) [nM] | IC50 (EGFR Del19/C797S; [6]) [nM] | IC50 (EGFR L858R/C797S; [7]) [nM] | IC50 (EGFR L858R/T790M/C797S; [8]) [nM] | IC50 (EGFR Del19/T790M/C797S; [9]) [nM]
Cn1cc(C#Cc2cnc(Nc3ccnc(-c4cnn(S(=O)(=O)C5CC5)c4)n3)cc2N2CCCC(O)C2)cn1 (stereo not shown) [Example 6, 1-(2-((2-(1-(Cyclopropylsulfonyl)-1H-pyrazol-4-yl)pyrimidin-4-yl)amino)-5-((1-methyl-1H-pyrazol-4-yl)ethynyl)pyridin-4-yl)piperidin-3-ol] | 6020 | 5.1 | 24.1 | 4.2 | 0.5 |  |  |  |  | 
Cn1cc(C#Cc2cnc(Nc3ccnc(-c4cnn(S(=O)(=O)C5CC5)c4)n3)cc2N2CCC(=O)CC2)cn1 [Example 7, 1-(2-((2-(1-(Cyclopropylsulfonyl)-1H-pyrazol-4-yl)pyrimidin-4-yl)amino)-5-((1-methyl-1H-pyrazol-4-yl)ethynyl)pyridin-4-yl)piperidin-4-one] | > 10000 | 24.2 | 143 | 5 | 4.5 |  |  |  |  | 
Cn1cc(C#Cc2cnc(Nc3ccnc(-c4cnn(S(=O)(=O)C5CC5)c4)n3)cc2N2CCC(F)CC2)cn1 [Example 8, 2-(1-(Cyclopropylsulfonyl)-1H-pyrazol-4-yl)-N-(4-(4-fluoropiperidin-1-yl)-5-((1-methyl-1H-pyrazol-4-yl)ethynyl)pyridin-2-yl)pyrimidin-4-amine] | > 10000 | 9.5 | 33.2 | 2.2 | 3.1 |  |  |  |  | 
CC(O)C1CCN(c2cc(Nc3ccnc(-c4cnn(S(=O)(=O)C5CC5)c4)n3)ncc2C#Cc2cnn(C)c2)CC1 (stereo not shown) [Example 10, 1-(1-(2-((2-(1-(Cyclopropylsulfonyl)-1H-pyrazol-4-yl)pyrimidin-4-yl)amino)-5-((1-methyl-1H-pyrazol-4-yl)ethynyl)pyridin-4-yl)piperidin-4-yl)ethan-1-ol] | > 10000 | 4.4 | 12.9 | 0.7 | 0.9 | 31.9 | 3 | 2.8 | 0.5 | 1.1
Cn1cc(C#Cc2cnc(Nc3ccnc(-c4cnn(S(=O)(=O)C5CC5)c4)n3)cc2N2CCC(C(C)(C)O)CC2)cn1 [Example 11, 2-(1-(2-((2-(1-(Cyclopropylsulfonyl)-1H-pyrazol-4-yl)pyrimidin-4-yl)amino)-5-((1-methyl-1H-pyrazol-4-yl)ethynyl)pyridin-4-yl)piperidin-4-yl)propan-2-ol] | > 10000 | 9.1 | 28.5 | 1.2 | 1.6 |  |  |  |  | 
Cn1cc(C#Cc2cnc(Nc3ccnc(-c4cnn(S(=O)(=O)C5CC5)c4)n3)cc2N2CCC(C)(CO)CC2)cn1 [Example 12, (1-(2-((2-(1-(Cyclopropylsulfonyl)-1H-pyrazol-4-yl)pyrimidin-4-yl)amino)-5-((1-methyl-1H-pyrazol-4-yl)ethynyl)pyridin-4-yl)-4-methylpiperidin-4-yl)methanol] | 1100 | 1.9 | 5.1 | 0.6 | 0.8 | 6 | 1.1 | 0.7 | 0.3 | 0.7
O=S(=O)(C1CC1)n1cc(-c2nccc(Nc3cc(N4CCC(CCO)CC4)c(C#Cc4cnn(CCF)c4)cn3)n2)cn1 [Example 17, 2-(1-(2-((2-(1-(Cyclopropylsulfonyl)-1H-pyrazol-4-yl)pyrimidin-4-yl)amino)-5-((1-(2-fluoroethyl)-1H-pyrazol-4-yl)ethynyl)pyridin-4-yl)piperidin-4-yl)ethan-1-ol] | > 10000 | 10.3 | 53.3 | 6.1 | 2 |  |  |  |  | 
CC(C)Nc1cc(Nc2ccnc(-c3cnn(S(=O)(=O)C4CC4)c3)n2)ncc1C#Cc1cnn(CCF)c1 [Example 20, N^2-(2-(1-(Cyclopropylsulfonyl)-1H-pyrazol-4-yl)pyrimidin-4-yl)-5-((1-(2-fluoroethyl)-1H-pyrazol-4-yl)ethynyl)-N^4-isopropylpyridine-2,4-diamine] | > 10000 | 61.5 |  | 1.6 | 2.4 | 517 | 23.1 | 20.4 | 1.3 | 1.2
CC(C)Nc1cc(Nc2ccnc(-c3cnn(S(=O)(=O)C4CC4)c3)n2)ncc1C#Cc1cnn(CC(F)F)c1 [Example 23, N^2-(2-(1-(Cyclopropylsulfonyl)-1H-pyrazol-4-yl)pyrimidin-4-yl)-5-((1-(2,2-difluoroethyl)-1H-pyrazol-4-yl)ethynyl)-N^4-isopropylpyridine-2,4-diamine] |  |  |  |  |  | 907 | 77.7 | 92.5 | 7.1 | 1.6
Cn1cc(C#Cc2cnc(Nc3ccnc(-c4cnn(S(=O)(=O)C5CC5)c4)n3)cc2N2CCC(O)CC2)cn1 [Example 27, 1-(2-((2-(1-(Cyclopropylsulfonyl)-1H-pyrazol-4-yl)pyrimidin-4-yl)amino)-5-((1-methyl-1H-pyrazol-4-yl)ethynyl)pyridin-4-yl)piperidin-4-ol] | > 10000 | 4.1 | 27.8 | 1.5 | 0.6 | 22 | 4 | 3.6 |  | 0.6
O=S(=O)(C1CC1)n1cc(-c2nccc(Nc3cc(N4CCC(O)CC4)c(C#Cc4cnn(CCF)c4)cn3)n2)cn1 [Example 28, 1-(2-((2-(1-(Cyclopropylsulfonyl)-1H-pyrazol-4-yl)pyrimidin-4-yl)amino)-5-((1-(2-fluoroethyl)-1H-pyrazol-4-yl)ethynyl)pyridin-4-yl)piperidin-4-ol] | > 10000 | 4.9 | 28.1 | 2.3 | 0.7 |  |  |  |  | 
